The target of the assay is T1, DmOctβ1 receptor (Drosophila melanogaster, UniProt Q9VCZ3).
T1 construct: expressed in transfected cells; host or cells: flpTM cells (HEK293 flpIn, Invitrogen #750-07, carrying the CNGA2 variant)
T1 sequence (Q9VCZ3 1-508): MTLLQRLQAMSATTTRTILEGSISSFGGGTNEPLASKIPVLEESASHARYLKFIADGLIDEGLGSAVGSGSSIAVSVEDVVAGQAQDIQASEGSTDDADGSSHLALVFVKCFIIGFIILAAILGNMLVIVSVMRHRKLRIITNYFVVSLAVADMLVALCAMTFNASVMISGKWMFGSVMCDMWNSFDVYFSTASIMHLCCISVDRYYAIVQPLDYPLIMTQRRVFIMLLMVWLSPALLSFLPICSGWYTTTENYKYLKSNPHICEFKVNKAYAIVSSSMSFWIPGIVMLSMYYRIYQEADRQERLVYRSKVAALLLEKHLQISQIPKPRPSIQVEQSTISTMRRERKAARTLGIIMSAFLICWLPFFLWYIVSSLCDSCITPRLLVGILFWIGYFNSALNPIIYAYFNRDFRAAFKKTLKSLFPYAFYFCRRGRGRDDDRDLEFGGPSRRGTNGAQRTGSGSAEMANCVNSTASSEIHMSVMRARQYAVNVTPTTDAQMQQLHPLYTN
The assay is described as follows: Ca2+ fluorimetry in plate reader (96 MWP), flpTM-DmOctβ1 cells (cAMP-mediated Ca2+ influx via CNGA2). The class given is cell-based. How it is done:
Both the DmOctα1B receptor- and DmOctβ1 receptor-expressing (=flpTM-DmOctβ1) cell lines were initially investigated via Ca^2+ fluorimetric measurements in a plate reader. The cells were seeded in 96 well plates and loaded with Fluo-4, enabling the detection of changes in [Ca^2+]i. The Fluo-4 was excited at 485 nm and the fluorescence emission was recorded at 510 nm. To overcome the cAMP degradation by cell-endogenous phosphodiesterases, the DmOctβ1-expressing cells were treated with 100 µM iso-butylmethylxanthine (IBMX). Prior to the ligand application, the basal fluorescence (F0) was recorded and the concentration–response curves were generated by plotting the changes in fluorescence ((Fmax − F0)/F0 = ΔF/F0) against the ligand concentrations. For a better comparison, the fluorescence intensities were normalized. The maximal change in fluorescence for each of the stimulation series was defined as 100%. The EC50 values were determined from a nonlinear regression plot (four parameters) using GraphPad Prism v5.04 for analysis and display.
In order to omit loading with the fluorescent dye, both the DmOctα1B-expressing cells and flpTM-DmOctβ1 cells were stably transfected with a construct encoding the cytosolic version of GCaMP3.0. As in the previous experiment with Fluo-4, the GCaMP3.0-expressing cell lines were seeded in 96 well plates and incubated with the same series of increasing octopamine concentrations. The GCaMP3.0 was excited at 485 nm and the fluorescence emission was recorded at 510 nm. The basal fluorescence (F0) was recorded before adding the octopamine concentration series. The fluorescence intensities were normalized to the maximal change in fluorescence, defined as 100%. The concentration–response curves were generated with GraphPad Prism v5.04. In Figure 1, the concentration–response curves obtained with Fluo-4 and GCaMP3.0 are depicted for both of the receptors. […]

SMILES strings stand for the structures. Several values for one entry are separate records, joined by “and”; a condition that tells them apart may be missing. Equal entries are not always repeated. Where two headings read alike, the source gives them in different places.

For the molecule `NCC(O)c1ccc(O)cc1` (stereo not drawn) [octopamine], the EC50 (flpTM-DmOctβ1-GCaMP3.0 cells, 100 µM IBMX, given as logEC50 (negative), read-out: logEC50 ± SD (converted)) is 0.437 nM; the EC50 (flpTM-DmOctβ1-GCaMP3.0 cells, 100 µM IBMX, read-out: EC50) came out at 0.4 nM; the EC50 (flpTM-DmOctβ1 cells loaded with Fluo-4, 100 µM IBMX, read-out: EC50) is ~1.2 nM and 1.2 nM.
